Assay results reported in ChEMBL document CHEMBL1150230, “Mappain, a new cytotoxic prenylated stilbene from Macaranga mappa” (J Nat Prod, 2001).

Key:
Format in all cases: functional, cell-based
[1] = Cytotoxicity against multidrug-resistant human SKVLB1cells by SRB assay
MDA-MB-435 = assay: Cytotoxicity against multidrug-sensitive human MDA-MB-435 cells by SRB assay
SK-OV-3 = assay: Cytotoxicity against multidrug-sensitive human SKOV3 cells by SRB assay

CC(C)=CCC/C(C)=C/Cc1cc(/C=C/c2cc(O)c(CC=C(C)C)c(O)c2)cc(O)c1O [MAPPAIN]
IC50 [1]: 1.3 µM | IC50 (MDA-MB-435): 1 µM | IC50 (SK-OV-3): 1.3 µM
